Starred links: 1 amine or outer side, 2 acyl side, 3 side chain; linkers in the order of their positions; H or OH if unused. Non-standard residues stand in square brackets, D forms with d. Residues, ends and D or L forms follow the SMILES beside them. *: point of attachment. Sta = CC(C)C[C@H](N)[C@@H](O)CC(=O)O; pNA = O=[N+]([O-])c1ccc(N*)cc1; Suc = O=C(CCC(=O)[*:2])[*:1]; Isovaleryl = CC(C)CC(=O)*
How the values were obtained:
AL-89 protease = assay: Effect of protease inhibitors on AL-89 protease activity; type: biochemical, Bacillus pseudofirmus AL-89; conditions: for Remaining activity (%): AL-89 protease, incubated 1 h at 30° C.
Experimental: (§1) Protease activity was determined using casein as substrate as described earlier [3.12]. The reaction mixture in a total volume of 2 ml was composed of 1% casein, 50 mM glycine-NaOH buffer, pH 10, and appropriately diluted enzyme. After 20 min incubation at 50° C. the reaction was terminated by adding equal volume of 10% trichloroacetic acid (TCA). After separation of the unreacted casein precipitate by centrifugation, 0.5 ml of clear supernatant was mixed with 2.5 ml of 0.5 M Na2CO3 and 0.5 ml of 1 N Folin-Ciocalteau's phenol reagent. After 30 min at 25° C., absorbance was measured at 660 nm against a reagent blank. One unit of protease activity was defined as the amount of enzyme that released 1 μg of amino acid equivalent to tyrosine per min under the standard assay conditions.
(§2) AL protease was also not inhibited by inhibitors of cysteine proteases, aspartate proteases and metal proteases (Table 5). The effect of another serine protease specific inhibitor, 3,4-dichlorocoumarin at a concentration of 100 μM on the protease activity was investigated.

AL protease [1] = biological target: T1, AL protease (Nesterenkonia aethiopica, UniProt D0VWT7); assay: biochemical; type: biochemical, Nesterenkonia sp. AL
Experimental: as §1, §2

AL protease [2] = biological target: T1, AL protease; assay: Assay with synthetic peptide, pNA, AMC, NNap and ester substrates (kinetic parameters); type: biochemical, Nesterenkonia sp. AL; conditions: for Hydrolysis of synthetic substrate by AL protease: result in words
Experimental: The AL protease activity toward a variety of commercially available synthetic peptide substrates was assayed. The incubation volume was always 1 ml in which 10 μl enzyme solution; 0.76 mg protein/ml was used unless otherwise stated. Initial reaction rates were fitted to the Michaelis-Menten equation, and kinetic parameters, kcat and Km were determined.
Fluorometric assay for Suc-L-Y-AMC, Suc-A-A-F-AMC, Suc-I-I-W-AMC, Suc-A-A-K-AMC, NA-Bz-R-AMC, Suc-L-L-V-Y-AMC, Suc-F-G-L-β-NNap, Suc-L-β-NNap (Sigma) was performed in 50 mM glycine-NaOH buffer, pH 10 at 25° C. The substrate concentration range was from 0.05 to 10 mM except for Suc-L-L-V-Y-AMC (0.1-25 μM). Fluorescence was monitored with a SPEX Fluorolog spectrometer, in a 1×1 cm quartz cuvette placed in a thermostat cuvette holder, using excitation wavelength of 345 nm, emission wavelength 442 nm slit width 5 nm for AMC substrate and excitation wavelength of 340 nm, emission wavelength of 410 and slit width 5 nm for β-NNap substrates. A standard solution of AMC and β-naphthylamine was used to convert the fluorescence values to product concentrations.
Activity with p-nitroanilide substrates was tested at 25° C. in 50 mM Tris-HCl buffer, pH 9. Following substrates were used: Bz-Tyr-pNA (Sigma), BAPNA, Suc-Phe-pNA, Suc-A-A-P-F-pNA, Suc-A-A-P-L-pNA, Suc-G-G-G-pNA, Suc-A-A-A-pNA, Suc-A-A-V-pNA (Bachem Feinchemikalien AG (Bubendorf, Switzerland), and S-benzyl-L-cysteine-4-nitroanilide (Fluka Chemie AG, Buchs, Switzerland). The release of p-nitroanilide (pNA) was measured at 410 nm. Extinction coefficient (E) of pNA was taken to be 8480 M^−1 cm^−1. Initial reaction rates were determined over a concentration range of 0.05-10 mM for most substrates, excluding Suc-A-A-P-L-pNA (0.05-20 mM), and S-benzyl-L-Cysteine-4-nitroanilide (0.05-80 mM).
Hydrolytic activity of the enzyme on the ester substrates, BAEE, BTEE, Bz-F-NE, p-nitrophenyl acetate, p-nitrophenyl butyrate and Suc-F-L-F-SBzl (Sigma) was examined spectrophotometrically at 410 nm (ε410=900 M^−1cm^−1) in 50 mM Tris-HCl buffer, pH 9 at 25° C. and 50° C. respectively. The substrates concentration range between 0.05 to 10 mM. The Initial hydrolysis of BAEE, Suc-F-L-F-SBzl was followed at 253 nm (ε253=1150 M^−1cm^−1) and BTEE at 259 nm (ε259=964 M^−1cm^−1), at which their extinction coefficients were taken in calculation.
Due to the poor aqueous solubility of some of the substrates, their stock solutions were prepared in organic solvents, and further dilution was done with the used buffer. Suc-F-G-L-β-NNap, Suc-L-L-V-Y-AMC, Suc-L-Y-AMC, Suc-A-A-F-AMC, Suc-I-I-W-AMC, Suc-A-A-K-AMC, NA-Bz-R-AMC and Bz-Tyr-pNA, Suc-F-L-F-SBzl and Bz-F-βNE were dissolved in dimethylsulfoxide (DMSO), Suc-Phe-pNA, BTEE and BAPNA in ethanol, Suc-A-A-A-pNA in N,N-dimethylformamide (DMF), and Bz-Cys-NA in acetonitrile.
In these cases the kcat/Km was calculated from velocity measurements at low substrate concentration [S]<<Km, where v=(kcat/Km)[E]0 [S].

[3] = AL protease, inhibitor 10 mM, incubated 1 h at 30° C.
[4] = substrate marked b (footnote not given), pNA and ester substrates, 50 mM Tris-HCl buffer, pH 9
[5] = substrate marked a (footnote not given), AMC substrate, 50 mM glycine-NaOH buffer, pH 10 at 25° C.

T1 sequence (D0VWT7 entry or part of it): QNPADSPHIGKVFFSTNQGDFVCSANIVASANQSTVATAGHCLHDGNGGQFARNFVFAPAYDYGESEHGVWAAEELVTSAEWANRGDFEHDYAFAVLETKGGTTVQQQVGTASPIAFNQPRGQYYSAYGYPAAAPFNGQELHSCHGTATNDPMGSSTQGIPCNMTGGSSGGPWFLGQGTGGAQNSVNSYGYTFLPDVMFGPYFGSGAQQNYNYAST

Molecule: O=C(O)c1cc[c]([Hg][Cl])cc1 [PCMBA]
- Remaining activity (%) (AL-89 protease; inhibitor 5 mM): 91%
- Remaining activity (%) (AL protease [1]; AL protease, inhibitor 5 mM, incubated 1 h at 30° C.): 99%

Molecule: c1cnc2c(c1)ccc1cccnc12 [1,10-Phenanthroline]
- Remaining activity (%) (AL-89 protease; inhibitor 10 mM): 75%
- remaining activity at 10000 µM (AL protease [1]; [3]): 113%

Molecule: CC(=O)Oc1ccc([N+](=O)[O-])cc1 [p-nitrophenyl acetate]
- Hydrolysis of synthetic substrate by AL protease (AL protease [2]): unable to cleave

Molecule: O=C(O)CCC(=O)N[C@@H](Cc1ccccc1)C(=O)Nc1ccc([N+](=O)[O-])cc1 [Suc-Phe-pNA, N-succinyl-phenylalanine-p-nitroanilide]
- Hydrolysis of synthetic substrate by AL protease (AL protease [2]): did not show detectable activity

Molecule: N-Succinyl-Ala-Ala-Ala-p-nitroanilide [Suc-A-A-A-pNA]
- Hydrolysis of synthetic substrate by AL protease (AL protease [2]): unable to hydrolyze

Molecule: N=C(N)NCCCC(NC(=O)c1ccccc1)C(=O)Nc1ccc([N+](=O)[O-])cc1 (racemic) [BAPNA, Nα-benzoyl-D,L-arginine-p-nitroanilide]
- Hydrolysis of synthetic substrate by AL protease (AL protease [2]): did not show detectable activity

Molecule: N-succinyl-Ala-Ala-Pro-Phe-p-nitroanilide (Suc-AAPF-pNA) [Suc-A-A-P-F-pNA]
- Hydrolysis of synthetic substrate by AL protease (AL protease [2]): remarkable hydrolyzing activity
- Km (AL protease [2]; [4]): 2970 µM
- kcat (AL protease [2]; [4]): 4391.46 s⁻¹

Molecule: CC(C)CC(=O)N[C@H](C(=O)N[C@H](C(=O)N[C@@H](CC(C)C)[C@@H](O)CC(=O)N[C@@H](C)C(=O)N[C@@H](CC(C)C)[C@@H](O)CC(=O)O)C(C)C)C(C)C [Pepstatin] (Isovaleryl-VV[Sta]A[Sta]-OH)
- Remaining activity (%) (AL-89 protease; inhibitor 0.1 mM): 100%
- remaining activity at 100 µM (AL protease [1]; AL protease, inhibitor 0.1 mM, incubated 1 h at 30° C.): 102%

Molecule: N-succinyl-Gly-Gly-Gly-p-nitroanilide (Suc-Gly-Gly-Gly-pNA; SMILES O=C(O)CCC(=O)NCC(=O)NCC(=O)NCC(=O)Nc1ccc([N+](=O)[O-])cc1) [Suc-G-G-G-pNA]
- Hydrolysis of synthetic substrate by AL protease (AL protease [2]): unable to hydrolyze

Molecule: O=S(=O)(F)Cc1ccccc1 [PMSF, phenyl-methanesulfonyl fluoride]
- Remaining activity (%) (AL-89 protease; inhibitor 1 mM): 0%
- Remaining activity (%) (AL-89 protease; inhibitor 10 mM): 0%
- Inhibition of AL-89 protease activity (AL-89 protease; result in words, 1 mM): totally inhibited
- Remaining activity (%) (AL protease [1]; AL protease, inhibitor 1 mM, incubated 1 h at 30° C.): 100%
- Remaining activity (%) (AL protease [1]; [3]): 108%
- Inhibition of AL protease activity (AL protease [1]; result in words, PMSF up to 10 mM, others at concentrations of Table 5): did not inhibit

Molecule: N-succinyl-Leu-Leu-Val-Tyr-7-amino-4-methyl coumarin [Suc-L-L-V-Y-AMC]
- kcat/Km higher than that for Suc-A-A-P-F-pNA and Suc-A-A-P-L-pNA (AL protease [2]; AL protease): 2.5-5 fold
- Hydrolysis of synthetic substrate by AL protease (AL protease [2]): remarkable hydrolyzing activity
- Km (AL protease [2]; [5]): 15 µM
- kcat (AL protease [2]; [5]): 51.68 s⁻¹

Molecule: N-succinyl-Ala-Ala-Val-p-nitroanilide (Suc-Ala-Ala-Val-pNA; SMILES CC(C)[C@H](NC(=O)[C@H](C)NC(=O)[C@H](C)NC(=O)CCC(=O)O)C(=O)Nc1ccc([N+](=O)[O-])cc1) [Suc-A-A-V-pNA]
- Hydrolysis of synthetic substrate by AL protease (AL protease [2]): unable to hydrolyze

Molecule: O=C(O)CN(CCN(CC(=O)O)CC(=O)O)CC(=O)O [EDTA, ethylenediamino tetraacetate]
- Remaining activity (%) (AL-89 protease; inhibitor 10 mM): 98%
- Remaining activity (%) (AL protease [1]; [3]): 99%

Molecule: N-succinyl-Ala-Ala-Pro-Leu-p-nitroanilide (Suc-AAPL-pNA; SMILES CC(C)C[C@H](NC(=O)[C@@H]1CCCN1C(=O)[C@H](C)NC(=O)[C@H](C)NC(=O)CCC(=O)O)C(=O)Nc1ccc([N+](=O)[O-])cc1) [Suc-A-A-P-L-pNA]
- Hydrolysis of synthetic substrate by AL protease (AL protease [2]): remarkable hydrolyzing activity
- Km (AL protease [2]; [4]): 9300 µM
- kcat (AL protease [2]; [4]): 6646.19 s⁻¹
